# Source: patent US20220144815A1, “1,3,4-OXADIAZOLES AND THEIR DERIVATIVES AS NEW ANTIFUNGAL AGENTS” (Bayer Aktiengesellschaft, priority 2018, published 2022)
# Assay: Log P by HPLC on reversed phase columns, method [a] (EEC directive 79/831 Annex V.A8)
# Format: physicochemical
# Conditions: log P determined according to method [a] (HPLC on reversed phase columns)
# Method: Measurement of Log P values as provided herein was performed according to EEC directive 79/831 Annex V.A8 by HPLC (High Performance Liquid Chromatography) on reversed phase columns with the following methods: • ^[a] Log P value is determined by measurement of LC-UV, in an acidic range, with 0.1% formic acid in water and acetonitrile as eluent (linear gradient from 10% acetonitrile to 95% acetonitrile). • ^[b] Log P value is determined by measurement of LC-UV, in a neutral range, with 0.001 molar ammonium acetate solution in water and acetonitrile as eluent (linear gradient from 10% acetonitrile to 95% acetonitrile). • ^[c] Log P value is determined by measurement of LC-UV, in an acidic range, with 0.1% phosphoric acid and acetonitrile as eluent (linear gradient from 10% acetonitrile to 95% acetonitrile). If more than one Log P value is available within the same method, all the values are given and separated by “+”. Calibration was done with straight-chain alkan2-ones (with 3 to 16 carbon atoms) with known Log P values (measurement of Log P values using retention times with linear interpolation between successive alkanones). Lambda-max-values were determined using UV-spectra from 200 nm to 400 nm and the peak values of the chromatographic signals In table 1, the log P values were determined according to method [^a]. In table 2, the log P values were determined according to method [^a].
row,Structure (SMILES),logP
1,O=C(Nc1ccc(F)cc1F)c1ccc(-c2nnc(C(F)F)o2)cc1 [Example I-027],2.57
2,CN(C)c1ncc(-c2nnc(C(F)F)o2)cn1 [Example I-062],1.87
3,O=C(Nc1ccc(F)cc1F)c1ccc(-c2nnc(C(F)(F)F)o2)cc1 [Example I-028],3.12
4,Fc1cc(-c2ncc(-c3nnc(C(F)F)o3)cn2)ccn1 [Example I-079],2.33
5,FC(F)c1nnc(-c2ccc(N3CCOCC3)nc2)o1 [Example I-041],1.91
6,CCc1noc(-c2ccc(-c3nnc(C(F)(F)F)o3)cc2)n1 [Example I-018],3.59
7,COCCNC(=O)c1ccc(-c2nnc(C(F)(F)F)o2)cc1 [Example I-020],2.04
8,FC(F)c1nnc(-c2cnc(C3=CCCC3)nc2)o1 [Example I-065],2.70
9,Fc1ccccc1C1(Nc2ccc(-c3nnc(C(F)(F)Cl)o3)cn2)CC1 [Example I-057],3.81
10,O=C(Nc1ccc(F)cc1F)c1ccc(-c2nnc(C(F)(F)F)s2)cc1 [Example I-029],3.29
11,CC1(C2(Nc3ncc(-c4nnc(C(F)F)o4)cn3)CC2)CC1 [Example I-097],2.89
12,COCCNc1ncc(-c2nnc(C(F)F)o2)cn1 [Example I-068],1.48
13,CC1(C(=O)Nc2ccc(-c3nnc(C(F)F)o3)cn2)CC1 [Example I-045],2.28
14,FC(F)c1nnc(-c2ccc(Cl)nc2)o1 [Example I-031],1.92
15,Cc1ccccc1Nc1ncc(-c2nnc(C(F)F)o2)cn1 [Example I-086],2.51
16,COc1ccc(-c2ncc(-c3nnc(C(F)F)o3)cn2)cc1 [Example I-089],3.01

# Same assay, conditions: reversed phase HPLC column; Method A: LC-UV, acidic range, 0.1% formic acid in water and acetonitrile; read-out: Log P
row,Structure (SMILES),chromatographic logP
1,"CCc1noc(-c2ccc(C(=O)NNC(=O)C(F)(F)F)cc2)n1 [IIa.14, 4-(3-ethyl-1,2,4-oxadiazol-5-yl)-N′-(trifluoroacetyl)benzohydrazide]",1.93

# Same assay, conditions: reversed phase HPLC column; log P determined according to method [a] (HPLC on reversed phase columns); read-out: logP
row,Structure (SMILES),chromatographic logP
1,"C[C@H](Nc1ncc(-c2nnc(C(F)F)o2)cn1)c1ccc(F)cc1 [I.125b, 5-[5-(difluoromethyl)-1,3,4-oxadiazol-2-yl]-N-[(1S)-1-(4-fluorophenyl)ethyl]pyrimidin-2-amine]",2.85
2,"CCCC(Nc1ncc(-c2nnc(C(F)F)o2)cn1)c1ccccc1 (racemic) [I.140, 5-[5-(difluoromethyl)-1,3,4-oxadiazol-2-yl]-N-[(1RS)-1-phenylbutyl]pyrimidin-2-amine]",3.54
3,"Fc1ccccc1C1(Nc2ncc(-c3nnc(C(F)F)s3)cn2)CC1 [I.162, 5-[5-(difluoromethyl)-1,3,4-thiadiazol-2-yl]-N-[1-(2-fluorophenyl)cyclopropyl]pyrimidin-2-amine]",3.22
4,"Fc1ccc(C2(Oc3ncc(-c4nnc(C(F)F)o4)cn3)CC2)cc1 [I.149, 5-[5-(difluoromethyl)-1,3,4-oxadiazol-2-yl]-2-{[1-(4-fluorophenyl)cyclopropyl]oxy}pyrimidine]",3.19
5,"CCON(Cc1ccccc1)c1ncc(-c2nnc(C(F)F)o2)cn1 [I.148, N-benzyl-N-{5-[5-(difluoromethyl)-1,3,4-oxadiazol-2-yl]pyrimidin-2-yl}-O-ethylhydroxylamine]",3.28
6,"COc1ccccc1Cc1ncc(-c2nnc(C(F)F)o2)cn1 [I.107, 5-[5-(difluoromethyl)-1,3,4-oxadiazol-2-yl]-2-(2-methoxybenzyl)pyrimidine]",2.51

# Same assay, conditions: reversed phase HPLC column; method [a], HPLC on reversed phase columns; read-out: logP
row,Structure (SMILES),chromatographic logP
1,"Fc1ccccc1C1(Nc2ncc(-c3nnc(C(F)(F)Cl)o3)cn2)CC1 [I.179, 5-{5-[chloro(difluoro)methyl]-1,3,4-oxadiazol-2-yl}-N-[1-(2-fluorophenyl)cyclopropyl]pyrimidin-2-amine]",3.76
2,"CC(C)(Nc1ncc(-c2nnc(C(F)F)o2)cn1)c1ccccc1 [I.197, 5-[5-(difluoromethyl)-1,3,4-oxadiazol-2-yl]-N-(2-phenylpropan-2-yl)pyrimidin-2-amine]",3.08
3,"FC(F)c1nnc(-c2cnc(NC3(c4cccc(Cl)c4)CC3)nc2)o1 [I.227, N-[1-(3-chlorophenyl)cyclopropyl]-5-[5-(difluoromethyl)-1,3,4-oxadiazol-2-yl]pyrimidin-2-amine]",3.11
4,"Fc1ccc(C2(Nc3ncc(-c4nnc(C(F)F)o4)cn3)CC2)cc1F [I.229, 5-[5-(difluoromethyl)-1,3,4-oxadiazol-2-yl]-N-[1-(3,4-difluorophenyl)cyclopropyl]pyrimidin-2-amine]",2.84
5,"FC(F)c1nnc(-c2cnc(NC3(c4cccc(C(F)(F)F)c4)CC3)nc2)o1 [I.249, 5-[5-(difluoromethyl)-1,3,4-oxadiazol-2-yl]-N-{1-[3-(trifluoromethyl)phenyl]cyclopropyl}pyrimidin-2-amine]",3.24
6,"Cc1cccc(C2(Nc3ncc(-c4nnc(C(F)F)o4)cn3)CC2)c1 [I.202, 5-[5-(difluoromethyl)-1,3,4-oxadiazol-2-yl]-N-[1-(3-methylphenyl)cyclopropyl]pyrimidin-2-amine]",2.95
7,"FC(F)c1nnc(-c2cnc(NC3(c4ccccc4Br)CCCCC3)nc2)o1 [I.268, N-[1-(2-bromophenyl)cyclohexyl]-5-[5-(difluoromethyl)-1,3,4-oxadiazol-2-yl]pyrimidin-2-amine]",4.38
8,"CC(Nc1ncc(-c2nnc(C(F)F)o2)cn1)C1CCCCC1 (racemic) [I.193, N-[(1RS)-1-cyclohexylethyl]-5-[5-(difluoromethyl)-1,3,4-oxadiazol-2-yl]pyrimidin-2-amine]",3.74
9,"CN(c1ncc(-c2nnc(C(F)F)o2)cn1)C1(c2ccccc2F)CC1 [I.221, 5-[5-(difluoromethyl)-1,3,4-oxadiazol-2-yl]-N-[1-(2-fluorophenyl)cyclopropyl]-N-methylpyrimidin-2-amine]",3.98
10,"CC(C)(Nc1ncc(-c2nnc(C(F)F)o2)cn1)c1ccc(Cl)cc1 [I.231, N-[2-(4-chlorophenyl)propan-2-yl]-5-[5-(difluoromethyl)-1,3,4-oxadiazol-2-yl]pyrimidin-2-amine]",3.55
11,"CC(Nc1ncc(-c2nnc(C(F)F)o2)cn1)c1ccc(F)cc1F (racemic) [I.215, 5-[5-(difluoromethyl)-1,3,4-oxadiazol-2-yl]-N-[(1RS)-1-(2,4-difluorophenyl)ethyl]pyrimidin-2-amine]",3.01
12,"Fc1cc(C(F)(F)F)ccc1C1(Nc2ncc(-c3nnc(C(F)F)o3)cn2)CC1 [I.263, 5-[5-(difluoromethyl)-1,3,4-oxadiazol-2-yl]-N-{1-[2-fluoro-4-(trifluoromethyl)phenyl]cyclopropyl}pyrimidin-2-amine]",3.59
13,"CC(Nc1ncc(-c2nnc(C(F)F)o2)cn1)c1ccc2ccccc2c1 (racemic) [I.232, 5-[5-(difluoromethyl)-1,3,4-oxadiazol-2-yl]-N-[(1RS)-1-(2-naphthyl)ethyl]pyrimidin-2-amine]",3.45
14,"Fc1ccc(C(F)(F)CNc2ncc(-c3nnc(C(F)F)o3)cn2)cc1 [I.234, N-[2,2-difluoro-2-(4-fluorophenyl)ethyl]-5-[5-(difluoromethyl)-1,3,4-oxadiazol-2-yl]pyrimidin-2-amine]",2.9
15,"CC(Nc1ncc(-c2nnc(C(F)F)o2)cn1)c1cccc(Cl)c1 (racemic) [I.213, N-[(1RS)-1-(3-chlorophenyl)ethyl]-5-[5-(difluoromethyl)-1,3,4-oxadiazol-2-yl]pyrimidin-2-amine]",3.2
